Test results: patent EP0328090A2 (priority 1988, dated 1989)
Starred links: 1 amine or outer side, 2 acyl side, 3 side chain; linkers in the order of their positions; H or OH if unused. Non-standard residues stand in square brackets, D forms with d. Residues, ends and D or L forms follow the SMILES beside them. X1 = CCNC[C@@H](C(=O)[*:2])N(C)[*:1]; Sar = CNCC(=O)O

Each molecule was assayed against T1, LHRH receptors (Rattus norvegicus, UniProt P30969) (assay: Radioligand receptor binding assay). Settings: rat pituitary membranes; radioiodinated [D-Leu⁶-des Gly¹⁰]-LHRH ethyl amide 50pM; 2 hours at 4°C; read-out: Receptor Binding pkI (converted).
T1 sequence (P30969 1-327): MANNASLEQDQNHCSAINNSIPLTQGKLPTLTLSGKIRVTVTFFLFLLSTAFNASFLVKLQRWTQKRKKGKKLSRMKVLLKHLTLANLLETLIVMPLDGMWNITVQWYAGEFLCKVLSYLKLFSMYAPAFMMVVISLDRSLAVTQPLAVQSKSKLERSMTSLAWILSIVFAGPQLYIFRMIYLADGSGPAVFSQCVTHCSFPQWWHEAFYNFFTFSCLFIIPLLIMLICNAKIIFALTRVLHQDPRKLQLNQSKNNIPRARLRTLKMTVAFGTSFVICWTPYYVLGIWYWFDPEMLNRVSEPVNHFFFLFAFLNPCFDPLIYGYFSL
Description: (§1) The biological activities of the compounds of the invention are determined by the following assays: • (a) Receptor Binding. A radioligand receptor binding assay is performed in a similar way to that described in the literature (J. Marion et al., Mol. Pharmacol. 19 399 (1981)). […] The radioligand (50pM), receptors, and compounds to be tested are coincubated for 2 hours at 4°C. Bound ligand is separated from free ligand via centrifugation and aspiration. […] This assay has been adopted from the literature (H.A. Jinnah and P.M. Conn, Endrocrinology 118 2599 (1986)). Rat pituitaries are removed from immature female rats, minced, and dissociated with collagenase/hyaluronidase. They are allowed to attach to 48-well microtiter plates for 48-72 hours, then are exposed to test compounds for 3 hours at 37°C. The medium is assayed for released LH by RIA (radioimmunoassay). […] The compound to be tested is administered to castrated rats intraveneously and the serum LH concentration at various time points is measured by RIA. The time inteorated LH response is calculated and the dose producing half-maximal LH release (ED₅₀) is reported. • (d) Stability against enzymatic degradation. The intestinal stability of the compounds of the invention was determined using in vitro rat jejunum in a reperfusion system. The fractional mucosal loss was an indicator of the relative rate if degradation of the compounds thirty minutes after introduction of the luminal bath.

Question: `CCNC(=O)[C@@H]1CCCN1C(=O)[C@H](CCCN=C(N)N)NC(=O)[C@H](CC(C)C)NC(=O)[C@@H](CC(C)C)N(C)C(=O)[C@H](Cc1ccc(O)cc1)NC(=O)[C@H](CO)NC(=O)[C@H](Cc1c[nH]c2ccccc12)NC(=O)[C@H](Cc1cnc[nH]1)NC(=O)[C@@H]1CCC(=O)N1` [Ex. 22, (pyro)Glu-His-Trp-Ser-Tyr-N-Me-D-Leu-Leu-Arg-ProNHEt] was tested. Which Ki did it give?
Answer: 0.692 nM

Question: How did the Ki turn out when `CCNC(=O)[C@@H]1CCCN1C(=O)[C@H](CCCNC(=N)N)NC(=O)[C@H](CC(C)C)N1CC[C@H](NC(=O)[C@H](Cc2ccc(O)cc2)NC(=O)[C@H](CO)N(C)C(=O)[C@H](Cc2c[nH]c3ccccc23)NC(=O)[C@H](Cc2c[nH]cn2)NC(=O)[C@@H]2CCC(=O)N2)C1=O` [Ex. 13, (pyro)-Glu-His-Trp-N-Me-Ser-Tyr-6,7-[2-(S-3-amino-2-oxo-pyrrolidin-1-yl)-S-2-Isopropylmethylacetyl]-Arg-Pro-NHEt] was run?
Answer: 0.038 nM

Question: With `CC(C)C[C@H](NC(=O)[C@@H](Cc1ccc2ccccc2c1)NC(=O)[C@H](Cc1ccc(O)cc1)NC(=O)[C@H](CO)N(C)C(=O)[C@H](Cc1c[nH]c2ccccc12)NC(=O)[C@H](Cc1c[nH]cn1)NC(=O)[C@@H]1CCC(=O)N1)C(=O)N[C@@H](CCCN=C(N)N)C(=O)N1CCC[C@H]1C(=O)NCC(N)=O` [Ex. 3, (pyro)Glu-His-Trp-N-Me-Ser-Tyr-D-(2)-Nal-Leu-Arg-Pro-Gly-NH₂] as the molecule, how does the Ki read?
Answer: 0.0398 nM

Question: `CCNC(=O)[C@@H]1CCCN1C(=O)[C@H](CCCN=C(N)N)NC(=O)[C@H](CC(C)C)NC(=O)[C@@H](Cc1c[nH]c2ccccc12)NC(=O)[C@H](Cc1ccc(O)cc1)N(C)C(=O)[C@H](CO)NC(=O)[C@H](Cc1c[nH]c2ccccc12)NC(=O)[C@H](Cc1c[nH]cn1)NC(=O)[C@@H]1CCC(=O)N1` [Ex. 20, (pyro)Glu-His-Trp-Ser-N-Me-Tyr-D-Trp-Leu-Arg-ProNHEt] was tested. Which Ki did it give?
Answer: 0.0158 nM

Each molecule was assayed on serum LH concentration (assay: In vivo LH release in castrated rats (serum LH by RIA)). Settings: i.v., dose producing half-maximal time integrated LH release.
Description: as §1

Question: For `CCNC(=O)CC[C@H](NC(=O)NCC)C(=O)N[C@@H](Cc1c[nH]cn1)C(=O)N[C@@H](Cc1c[nH]c2ccccc12)C(=O)N(C)[C@@H](CO)C(=O)N[C@@H](Cc1ccc(O)cc1)C(=O)N[C@H](Cc1c[nH]c2ccccc12)C(=O)N[C@@H](CC(C)C)C(=O)N[C@@H](CCCNC(=N)N)C(=O)N1CCC[C@H]1C(=O)NCC` [Ex. 12, (2)-N-(Ethylaminocarbonyl)-(5)-N-ethylamido-Glu-His-Trp-N-Me-Ser-Tyr-D-Trp-Leu-Arg-Pro-NHEt], which ED₅₀ is on record?
Answer: 9.90 µg/kg

Question: `CC(C)C[C@H](NC(=O)CNC(=O)[C@H](Cc1ccc(O)cc1)NC(=O)[C@H](CO)NC(=O)[C@H](Cc1c[nH]c2ccccc12)NC(=O)[C@H](Cc1c[nH]cn1)NC(=O)[C@@H]1CCC(=O)N1)C(=O)N[C@@H](CCCNC(=N)N)C(=O)N1CCC[C@H]1C(=O)NCC(N)=O` [LHRH, reference compound] was tested. Which ED₅₀ did it give?
Answer: 100 µg/kg

Question: How did the ED₅₀ turn out when `CCNC[C@@H](C(=O)N[C@@H](Cc1ccc(O)cc1)C(=O)N[C@H](Cc1c[nH]c2ccccc12)C(=O)N[C@@H](CC(C)C)C(=O)N[C@@H](CCCNC(=N)N)C(=O)N1CCC[C@H]1C(=O)NCC)N(C)C(=O)[C@H](Cc1c[nH]c2ccccc12)NC(=O)[C@H](Cc1c[nH]cn1)NC(=O)CN(C)C(C)=O` [Ex. 7, N-Ac-Sar-His-Trp-(3)-N-Et-(2)-N-Me-Dap-Tyr-D-Trp-Leu-Arg-Pro-NHEt] (Ac-[Sar]HW[X1]Y[dW]LRP-NHEt) was run?
Answer: 9.64 µg/kg
